# Measured values taken from patent publication US20250313642A1, “METHODS OF TREATING ACUTE AND CHRONIC GRAFT VERSUS HOST DISEASE” (Forte Subsidiary, Inc., priority 2022, published 2025).
# Key:
# [1] = system: xenograft GvHD mouse model (NCG-hIL-15 mice transplanted with human PBMCs); assay: Xenograft acute GvHD mouse model, single vs combination therapy, survival; assay type: in vivo; details: Day 18; treatment D5-D18; ruxolitinib 60 mpk PO twice-daily; Antibody 1 75 mpk IP once-daily; n=10
# Description: A xenograft GvHD mouse model was utilized to study human T and NK cell-mediated aGvHD and the therapeutic effects of anti-CD122 antibody treatment in single or combination therapy approaches. Female NCG-hIL-15 mice were irradiated at a dosage of 100 cGy on Day 1 of the protocol and human peripheral blood mononuclear cells (PBMCs) were transplanted via injection at a dosage of 1×10^7 cells/200 μL/mice via IV administration into the irradiated mice according to the same xenograft GvHD mouse model design as in Example 4.
# Treatment according to 3 different grouping of animals was begun on Day 5 following transplant, as shown in the study design of FIG. 4. Groups of 10 mice were used for each test category. A single treatment group, Group #1, (n=10) received ruxolitinib (at a dosage of 60 mpk) twice-daily by oral administration (PO) beginning on Day 5 and ending on Day 18. Days of treatment were D5, D6, D7, D8, D9, D10, D11, D12, D13, D14, D15, D16, D17, and D18. A combination therapy group. Group #2. (n=10) received ruxolitinib (at a dosage of 60 mpk) twice-daily by oral administration beginning on Day 5 and ending on Day 18. […]
# Day 18 was the end of study day for all treatment groups. Animals from all treatment groups were assessed daily beginning on Day 1 and ending on Day 18 for survival following transplant. […]
# [2] = system: allogeneic model of chronic GvHD (BALB/c mice); assay: Allogeneic chronic GvHD mouse model (B10.D2 donor into BALB/c host), GvHD score; assay type: in vivo; details: Antibody 3 100 mpk IP Q.O.D., Ruxolitinib 60 mpk PO b.i.d.
# Excerpt: An allogeneic model of chronic GvHD according to the animal model design of Ramos et al (Ramos T L et al. Delayed administration of ixazomib modifies the immune response and prevents chronic graft-versus-host disease. Bone Marrow Transplant. 2021 December;56(12):3049-3058) was investigated. In this model as shown in the study design of FIG. 6. B10.D2 mice serve as donor for bone marrow and splenocytes to be transplanted into irradiated BALB/c host mice. […] In this model of cGvHD, there is a low mortality rate extending past 150 days post-transplant and cGvHD symptoms can typically appear starting at approximately 30 days post-transplant. Study design includes treatment start at Day 30 post-transplant and end of study is marked at Day 60 post-transplant. […] Two test treatment groups included Group 2) Antibody 3 anti-CD122 antibody therapy (100 mpk delivered IP every other day (Q.O.D.), and Group 3) ruxolitinib monotherapy (60 mpk PO b.i.d). One negative control group (Group 1) including vehicle (IP Q.O.D.)+vehicle (PO b.i.d.) was also tested. Phenotypic cGvHD score and survival were assessed starting at Day 30 and ending at Day 60 post-transplant.
# • BALB/c mice were randomized into treatment groups based on Day 1 bodyweight. • Female BALB/c mice were irradiated (5 Gy) and intravenously injected with B10.D2 donor cells on Day 1. • Cell injection volume was about 200 μL of Bone Marrow cells and splenocytes mixture as described below in treatments. Total cell volume injection=200 μL in PBS. • GvHD Scoring and body weight measurement assessed on Day 30, 33, 35, 37, 39, 41, 43, 45, 48, 51, 53, 56, 58, and 60. • Individual scores according to the grading system below of Grade 0, 1, or 2 were measured and documented on each assessed day for each criterion of body weight loss, activity, posture, fur texture, and skin integrity for each subject in each test group. Each criterion was then summed per subject to yield a total GvHD score by subject per assessed day (e.g., add score for bodyweight loss, activity, posture, fur texture, and skin integrity to yield total GvHD score). • Total GvHD scores per animal per day were then averaged per group to yield average GvHD score per test group and the standard error of the mean (SEM) for each group was determined.
compound,measurement,setting,value
N#CC[C@H](C1CCCC1)n1cc(-c2ncnc3[nH]ccc23)cn1 [ruxolitinib],survival rate at the end of the study,[1],30%
same,Average total GvHD score (mean),[2]; D 30 post-transplant,0.6
same,Average total GvHD score (mean),[2]; D 33 post-transplant,0.6
same,Average total GvHD score (mean),[2]; D 35 post-transplant,0.7
same,Average total GvHD score (mean),[2]; D 39 post-transplant,1.2
same,Average total GvHD score (mean),[2]; D 43 post-transplant,1.1
same,Average total GvHD score (mean),[2]; D 45 post-transplant,1.2
same,Average total GvHD score (mean),[2]; D 48 post-transplant,1.2
same,Average total GvHD score (mean),[2]; D 51 post-transplant,1.2
same,Average total GvHD score (mean),[2]; D 56 post-transplant,1.4
same,Average total GvHD score (mean),[2]; D 60 post-transplant,1.7
